US8192962B2, “Processes for detecting toxic substances” (Daikin Industries, Ltd., priority 2001, dated 2012)

Test system: Unknown protein yeast genes
Experiment: DNA chip mRNA expression in yeast, unknown protein yeast genes (Table 1)
Assay type: cell-based, Saccharomyces cerevisiae S288C
How it was run: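 Cells were grown at 25° C. in YPD, treated at logarithmic phase for 2 h with a chemical at a concentration inhibiting growth but not causing death, and compared with untreated cultures. Labeled cDNA was hybridized to a DNA chip carrying all yeast genes, and the expression ratio was taken from scanner fluorescence.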

Q: With `[Cl][Pb][Cl]` [(4), PbCl2] as the molecule, how does the “The level of expressed mRNA in the presence of chemical substance/The level of expressed mRNA in the absence of chemical substance” value (yeast gene YAL053W, incubated two hours with chemical substance) read?
A: 2.1

Q: And the “The level of expressed mRNA in the presence of chemical substance/The level of expressed mRNA in the absence of chemical substance” value (yeast gene YBL048W)?
A: 2.8

Q: And the “The level of expressed mRNA in the presence of chemical substance/The level of expressed mRNA in the absence of chemical substance” value (yeast gene YBL107C)?
A: 1.5

Q: What about the “The level of expressed mRNA in the presence of chemical substance/The level of expressed mRNA in the absence of chemical substance” value (yeast gene YDL072C, incubated two hours with chemical substance) of the same molecule?
A: 2.1

Q: What about the “The level of expressed mRNA in the presence of chemical substance/The level of expressed mRNA in the absence of chemical substance” value (yeast gene YDL204W, incubated two hours with chemical substance) of the same molecule?
A: 3.4

Q: And the “The level of expressed mRNA in the presence of chemical substance/The level of expressed mRNA in the absence of chemical substance” value (yeast gene YDL222C, incubated two hours with chemical substance)?
A: 3.9

Q: What about the “The level of expressed mRNA in the presence of chemical substance/The level of expressed mRNA in the absence of chemical substance” value (yeast gene YDR330W, incubated two hours with chemical substance) of the same molecule?
A: 0.8

Q: What about the “The level of expressed mRNA in the presence of chemical substance/The level of expressed mRNA in the absence of chemical substance” value (yeast gene YDR411C, incubated two hours with chemical substance) of the same molecule?
A: 1.2

Q: And the “The level of expressed mRNA in the presence of chemical substance/The level of expressed mRNA in the absence of chemical substance” value (yeast gene YDR511W, incubated two hours with chemical substance)?
A: 2.3

Q: What about the “The level of expressed mRNA in the presence of chemical substance/The level of expressed mRNA in the absence of chemical substance” value (yeast gene YDR545W, incubated two hours with chemical substance) of the same molecule?
A: 0.7

Q: And the “The level of expressed mRNA in the presence of chemical substance/The level of expressed mRNA in the absence of chemical substance” value (yeast gene YEL001C, incubated two hours with chemical substance)?
A: 0.7

Q: And the “The level of expressed mRNA in the presence of chemical substance/The level of expressed mRNA in the absence of chemical substance” value (yeast gene YER004W, incubated two hours with chemical substance)?
A: 1.4

Q: And the “The level of expressed mRNA in the presence of chemical substance/The level of expressed mRNA in the absence of chemical substance” value (yeast gene YER035W, incubated two hours with chemical substance)?
A: 1.9

Q: What about the “The level of expressed mRNA in the presence of chemical substance/The level of expressed mRNA in the absence of chemical substance” value (yeast gene YER079W, incubated two hours with chemical substance) of the same molecule?
A: 2.0

Q: What about the “The level of expressed mRNA in the presence of chemical substance/The level of expressed mRNA in the absence of chemical substance” value (yeast gene YER106W, incubated two hours with chemical substance) of the same molecule?
A: 1.2

Q: And the “The level of expressed mRNA in the presence of chemical substance/The level of expressed mRNA in the absence of chemical substance” value (yeast gene YER158C, incubated two hours with chemical substance)?
A: 3.1

Q: And the “The level of expressed mRNA in the presence of chemical substance/The level of expressed mRNA in the absence of chemical substance” value (yeast gene YER163C, incubated two hours with chemical substance)?
A: 1.6

Q: And the “The level of expressed mRNA in the presence of chemical substance/The level of expressed mRNA in the absence of chemical substance” value (yeast gene YER175C, incubated two hours with chemical substance)?
A: 2.2

Q: What about the “The level of expressed mRNA in the presence of chemical substance/The level of expressed mRNA in the absence of chemical substance” value (yeast gene YFL006W, incubated two hours with chemical substance) of the same molecule?
A: 1.0

Q: What about the “The level of expressed mRNA in the presence of chemical substance/The level of expressed mRNA in the absence of chemical substance” value (yeast gene YFL010C, incubated two hours with chemical substance) of the same molecule?
A: 1.0

Q: What about the “The level of expressed mRNA in the presence of chemical substance/The level of expressed mRNA in the absence of chemical substance” value (yeast gene YFL024C) of the same molecule?
A: 0.7

Q: And the “The level of expressed mRNA in the presence of chemical substance/The level of expressed mRNA in the absence of chemical substance” value (yeast gene YFL032W, incubated two hours with chemical substance)?
A: 0.8

Q: What about the “The level of expressed mRNA in the presence of chemical substance/The level of expressed mRNA in the absence of chemical substance” value (yeast gene YGL037C, incubated two hours with chemical substance) of the same molecule?
A: 2.1

Q: What about the “The level of expressed mRNA in the presence of chemical substance/The level of expressed mRNA in the absence of chemical substance” value (yeast gene YGL047W, incubated two hours with chemical substance) of the same molecule?
A: 2.3

Q: What about the “The level of expressed mRNA in the presence of chemical substance/The level of expressed mRNA in the absence of chemical substance” value (yeast gene YGL053W, incubated two hours with chemical substance) of the same molecule?
A: 2.5

Q: What about the “The level of expressed mRNA in the presence of chemical substance/The level of expressed mRNA in the absence of chemical substance” value (yeast gene YGL121C) of the same molecule?
A: 4.2

Q: What about the “The level of expressed mRNA in the presence of chemical substance/The level of expressed mRNA in the absence of chemical substance” value (yeast gene YGL199C, incubated two hours with chemical substance) of the same molecule?
A: 1.0

Q: And the “The level of expressed mRNA in the presence of chemical substance/The level of expressed mRNA in the absence of chemical substance” value (yeast gene YGR101W, incubated two hours with chemical substance)?
A: 1.1

Q: What about the “The level of expressed mRNA in the presence of chemical substance/The level of expressed mRNA in the absence of chemical substance” value (yeast gene YGR110W) of the same molecule?
A: 5.9

Q: And the “The level of expressed mRNA in the presence of chemical substance/The level of expressed mRNA in the absence of chemical substance” value (yeast gene YGR130C, incubated two hours with chemical substance)?
A: 1.6

Q: And the “The level of expressed mRNA in the presence of chemical substance/The level of expressed mRNA in the absence of chemical substance” value (yeast gene YGR154C, incubated two hours with chemical substance)?
A: 0.5

Q: What about the “The level of expressed mRNA in the presence of chemical substance/The level of expressed mRNA in the absence of chemical substance” value (yeast gene YGR221C, incubated two hours with chemical substance) of the same molecule?
A: 1.4

Q: What about the “The level of expressed mRNA in the presence of chemical substance/The level of expressed mRNA in the absence of chemical substance” value (yeast gene YHR138C, incubated two hours with chemical substance) of the same molecule?
A: 2.8

Q: And the “The level of expressed mRNA in the presence of chemical substance/The level of expressed mRNA in the absence of chemical substance” value (yeast gene YHR199C, incubated two hours with chemical substance)?
A: 2.0

Q: What about the “The level of expressed mRNA in the presence of chemical substance/The level of expressed mRNA in the absence of chemical substance” value (yeast gene YIL023C, incubated two hours with chemical substance) of the same molecule?
A: 1.8

Q: And the “The level of expressed mRNA in the presence of chemical substance/The level of expressed mRNA in the absence of chemical substance” value (yeast gene YIL041W, incubated two hours with chemical substance)?
A: 1.3

Q: And the “The level of expressed mRNA in the presence of chemical substance/The level of expressed mRNA in the absence of chemical substance” value (yeast gene YIL087C, incubated two hours with chemical substance)?
A: 1.6

Q: And the “The level of expressed mRNA in the presence of chemical substance/The level of expressed mRNA in the absence of chemical substance” value (yeast gene YJL057C, incubated two hours with chemical substance)?
A: 1.7

Q: What about the “The level of expressed mRNA in the presence of chemical substance/The level of expressed mRNA in the absence of chemical substance” value (yeast gene YJL066C, incubated two hours with chemical substance) of the same molecule?
A: 2.5

Q: What about the “The level of expressed mRNA in the presence of chemical substance/The level of expressed mRNA in the absence of chemical substance” value (yeast gene YJL082W, incubated two hours with chemical substance) of the same molecule?
A: 1.1

Q: What about the “The level of expressed mRNA in the presence of chemical substance/The level of expressed mRNA in the absence of chemical substance” value (yeast gene YJL151C, incubated two hours with chemical substance) of the same molecule?
A: 1.2

Q: What about the “The level of expressed mRNA in the presence of chemical substance/The level of expressed mRNA in the absence of chemical substance” value (yeast gene YJL152W, incubated two hours with chemical substance) of the same molecule?
A: 1.3

Q: And the “The level of expressed mRNA in the presence of chemical substance/The level of expressed mRNA in the absence of chemical substance” value (yeast gene YJL161W, incubated two hours with chemical substance)?
A: 4.6

Q: What about the “The level of expressed mRNA in the presence of chemical substance/The level of expressed mRNA in the absence of chemical substance” value (yeast gene YJL171C, incubated two hours with chemical substance) of the same molecule?
A: 1.4

Q: And the “The level of expressed mRNA in the presence of chemical substance/The level of expressed mRNA in the absence of chemical substance” value (yeast gene YJR008W, incubated two hours with chemical substance)?
A: 1.7

Q: What about the “The level of expressed mRNA in the presence of chemical substance/The level of expressed mRNA in the absence of chemical substance” value (yeast gene YJR054W, incubated two hours with chemical substance) of the same molecule?
A: 0.9

Q: What about the “The level of expressed mRNA in the presence of chemical substance/The level of expressed mRNA in the absence of chemical substance” value (yeast gene YKL071W) of the same molecule?
A: 2.8

Q: And the “The level of expressed mRNA in the presence of chemical substance/The level of expressed mRNA in the absence of chemical substance” value (yeast gene YKL086W, incubated two hours with chemical substance)?
A: 2.6

Q: And the “The level of expressed mRNA in the presence of chemical substance/The level of expressed mRNA in the absence of chemical substance” value (yeast gene YKL151C, incubated two hours with chemical substance)?
A: 2.5

Q: What about the “The level of expressed mRNA in the presence of chemical substance/The level of expressed mRNA in the absence of chemical substance” value (yeast gene YKL153W, incubated two hours with chemical substance) of the same molecule?
A: 0.7
